Assay results taken from patent US8309556B2, “Use of compounds derived from pyrimidinetrione as acetyl cholinesterase inhibitors, compositions containing said derivatives, and the uses thereof” (priority 2005, dated 2012).
Where two headings read alike, the source gives them in different places.

How the values were obtained:
[1] = target: T1, normal recombinant Culex pipiens AChE1 (Culex pipiens, UniProt Q86GC8); assay: Inhibition of normal recombinant AChE1 (lysates of transfected Drosophile S2 cells, Ellman method); format: biochemical
T1 construct: made in house; host or cells: Drosophila S2 cells (crude lysate supernatant)
Experimental: (§1) The inhibitory properties of the compounds of the preceding table I are tested with regard to the AChE activity by either using a normal or G119S-mutated recombinant AChE or using extracts of larvae of mosquitoes which are sensitive (carrying normal AChE) or resistant (carrying G119S-mutated AChE) to organophosphorus compounds and carbamates.
(§2) The AChE activity is measured using the method described by Bourguet et al., Pest Biochem. Physiol., 1996, 55, 122-128, and which refers to the spectroscopic method described by Ellman G. L. et al. (Biochem. Pharmacol., 1961, 7, 88-95) using acetylthiocholine as substrate.
(§3) The inhibitory properties of the compounds according to the invention with regard to the activity of a G119S-mutated or normal recombinant Culex pipiens AChE1 are tested according to protocol described by Weill et al., Nature, 2003, 423, 136-137.
(§4) Each compound according to the invention is tested at different concentrations on lysates of Drosophile S2 cells transfected with an empty expression vector or an expression vector expressing normal or mutated AChE1. After expression, the cells are centrifuged for 15 minutes at 14 000 rpm and are subsequently lysed in a 0.25 M phosphate buffer comprising 1% Triton X100.
(§5) 100 μl of supernatant originating from the centrifuging of the cell lysates at 10 000 rpm for 3 minutes are incubated for 15 minutes with 10 μl of each compound according to the invention at various concentrations.
(§6) The effectiveness of the various compounds with regard to the mutated AChE activity, relative to that of the normal AChE, is estimated by the sensitive/insensitive ratio.

[2] = test system: G119S-mutated recombinant Culex pipiens AChE1; assay: biochemical; conditions: IC50 normal AChE1 relative to mutated AChE1, recombinant
Experimental: as §1, §2, §3, §4, §5, §6

[3] = target: T2, G119S-mutated recombinant Culex pipiens AChE1 (Culex pipiens, UniProt Q86GC8, G247S); assay: biochemical
T2 construct: made in house; host or cells: Drosophila S2 cells (crude lysate supernatant)
Experimental: as §1, §2, §3, §4, §5, §6

[4] = test system: larvae of mosquitoes Culex pipiens sensitive to propoxur; assay: Insecticidal activity: larval mortality, propoxur-sensitive larvae; format: in vivo; conditions: stage-4 larvae, mortality after 24 hours, log-Probit, read-out: LD50, Sensitive larvae
Experimental: (§7) The insecticidal activity of the compounds according to the invention denoted in table IV below is tested on larvae of mosquitoes Culex pipiens sensitive or resistant to the action of propoxur.
(§8) The larvae resistant or sensitive to propoxur are incubated in 24-well plates, at the rate of 15 stage-4 larvae per well, in 1 ml of tap water comprising different concentrations of compounds ranging from 0.31 to 50 μg/ml.
(§9) Larval mortality is measured after incubating for 24 hours. […] Cahiers ORSTOM, série Entomologie médicale et Parasitologie, 23(2), 117-121; Raymond, M., Prato, G. and Ratsira, D. (1993). PROBIT, CNRS-UMII, Licence L93019. Avenix, 34680 St. Georges d'Orques, France.), the homogeneity of the dose/response being tested. The effectiveness of the different compounds with regard to the resistant larvae, relative to the sensitive larvae, is estimated by the sensitive/resistant ratio.

[5] = target: T3, AChE1 activity of extracts of Culex pipiens larvae sensitive to propoxur (normal AChE) (Culex pipiens, UniProt Q86GC8); assay: Inhibition of AChE1 activity in extracts of propoxur-sensitive mosquito larvae; format: biochemical
T3 construct: from tissue; host or cells: whole larvae of propoxur-sensitive Culex pipiens, Triton X100 homogenate supernatant
Experimental: as §1, §2
(§10) Larvae of Culex pipiens mosquitoes which are sensitive or resistant to propoxur are milled in 400 μl of 0.25M phosphate buffer comprising 1% Triton X100. The homogenates are centrifuged at 10 000 rpm for 3 minutes.
(§11) The effectiveness of the various compounds with regard to the resistant larvae, relative to the sensitive larvae, is estimated by the sensitive/resistant ratio.

[6] = test system: larvae of mosquitoes Culex pipiens resistant to propoxur; assay: Insecticidal activity: larval mortality, propoxur-resistant larvae; format: in vivo; conditions: for LC50: Culex pipiens, stage-4 larvae, mortality after 24 hours, log-Probit, read-out: LD50, Resistant larvae; for Sensitive/resistant ratio: LD50 larval mortality, sensitive relative to resistant
Experimental: as §7, §8, §9

[7] = target: T4, AChE1 activity of extracts of Culex pipiens larvae resistant to propoxur (G119S-mutated AChE) (Culex pipiens, UniProt Q86GC8, G247S); assay: biochemical
T4 construct: from tissue; host or cells: whole larvae of propoxur-resistant Culex pipiens, Triton X100 homogenate supernatant
Experimental: as §1, §2, §10, §11

[8] = test system: AChE1 activity of extracts of Culex pipiens larvae resistant to propoxur (G119S-mutated AChE); assay: biochemical; conditions: IC50 on larval extracts, sensitive relative to resistant
Experimental: as §1, §2, §10, §11

[9] = extracts of propoxur-sensitive larvae, 15 minutes incubation, read-out: IC50, Sensitive larvae

| SMILES | IC50 [1] | Sensitive/insensitive ratio [2] | IC50 [3] | LC50 [4] | IC50 [5, 9] | LC50 [6] | Sensitive/resistant ratio [6] | IC50 [7] | Sensitive/resistant ratio [8] | IC50 [5] |
| --- | --- | --- | --- | --- | --- | --- | --- | --- | --- | --- |
| Cc1cccc(N2C(=O)NC(=O)C(=Cc3ccc(C)s3)C2=O)c1 [(2), 1-(3-methylphenyl)-5-[(5-methyl-2-thienyl)methylene]-2,4,6(1H,3H,5H)-pyrimidinetrione] | 39 µM | 0.90 | 43 µM | 455 µM | 442 µM | 170 µM | 2.7 | 28 µM | 15.5 | – |
| COc1cccc(N2C(=O)NC(=O)C(=Cc3ccc(C)s3)C2=O)c1 [(3), 1-(3-methoxyphenyl)-5-[(5-methyl-2-thienyl)methylene]-2,4,6(1H,3H,5H)-pyrimidinetrione] | 102 µM | 1.65 | 62 µM | 389 µM | 118 µM | 122 µM | 3.2 | 33 µM | 3.5 | – |
| Cc1ccc(C=C2C(=O)NC(=O)N(c3ccc(Cl)cc3)C2=O)o1 [(6), 1-(4-chlorophenyl)-5-[(5-methyl-2-furyl)methylene]-2,4,6(1H,3H,5H)-pyrimidinetrione] | 70 µM | 1.63 | 43 µM | 762 µM | 330 µM | 192 µM | 4.0 | 27 µM | 12.0 | – |
| CNC(=O)Oc1ccccc1OC(C)C [Propoxur, propoxur, reference compound] | 9 µM | 0.0014 | 6350 µM | 1.7 µM | – | 2700 µM | 0.00063 | 31800 µM | 0.00015 | 4.9 µM |
| C=CCN1C(=O)C(=Cc2ccc(C)o2)C(=O)NC1=S [(8), 1-allyl-5-[(5-methyl-2-furyl)methylene]-2-thioxodihydro-4,6(1H,5H)-pyrimidinetrione] | 61 µM | 2.08 | 29 µM | 223 µM | 91.6 µM | 123 µM | 1.8 | 51 µM | 1.8 | – |
| COc1ccc(N2C(=O)NC(=O)C(=Cc3ccc(C)o3)C2=O)cc1 [(5), 1-(4-methoxyphenyl)-5-[(5-methyl-2-furyl)methylene]-2,4,6(1H,3H,5H)-pyrimidinetrione] | 30 µM | 1.36 | 22 µM | 300 µM | 592 µM | 206 µM | 1.5 | 81 µM | 7.3 | – |
| COc1cccc(N2C(=O)NC(=O)C(=Cc3ccc(C)o3)C2=O)c1 [(12), 1-(3-methoxyphenyl)-5-[(5-methyl-2-furyl)methylene]-2,4,6(1H,3H,5H)-pyrimidinetrione] | 3.4 µM | 0.96 | 3.5 µM | – | 54 µM | – | – | 6 µM | 8.5 | – |
| Cc1ccc(C=C2C(=O)NC(=O)N(c3ccccc3)C2=O)o1 [(1), 5-[(5-methyl-2-furyl)methylene]-1-phenyl-2,4,6(1H,3H,5H)-pyrimidinetrione] | 34 µM | 1.47 | 23 µM | 310 µM | 29.4 µM | 143 µM | 2.2 | 6.2 µM | 4.7 | – |
| CCCCN1C(=O)NC(=O)C(=Cc2ccc(C)s2)C1=O [(20), 1-butyl-5-[(5-methyl-2-thienyl)methylene]-2,4,6(1H,3H,5H)-pyrimidinetrione] | 12.1 µM | 0.78 | 15.5 µM | – | 153 µM | – | – | 152 µM | 1.0 | – |
| Cc1ccc(C=C2C(=O)N(C)C(=O)N(C)C2=O)o1 [(4), 1,3-dimethyl-5-[(5-methyl-2-furyl)methylene]-2,4,6(1H,3H,5H)-pyrimidinetrione] | 73 µM | 2.40 | 31 µM | 576 µM | 74.3 µM | 200 µM | 2.9 | 7.5 µM | 9.8 | – |
